This is an account of results in ChEMBL document CHEMBL3994622, “Design and synthesis of new RAF kinase-inhibiting antiproliferative quinoline derivatives. Part 2: Diarylurea derivatives” (Eur J Med Chem, 2017).

Common to all, as to type: functional
For assay [1], the system named is SK-MEL-28. As to the kind of experiment: Growth inhibition of human SK-MEL-28 cells assessed as cell growth at 10 uM incubated for 48 hrs by sulforhodamine B assay relative to control. The note with it: SK-MEL-28, 48 h, read-out: Activity. For orientation: In SRB staining, fixed cells bind dye roughly in proportion to their protein.
In assay [2] the test system is M14. As to the kind of experiment: Growth inhibition of human M14 cells assessed as cell growth at 100 uM incubated for 48 hrs by sulforhodamine B assay relative to control. The note with it: M14, 48 h, read-out: Activity.
For another assay, the system named is NCI-H23. Kind of assay: Growth inhibition of human NCI-H23 cells assessed as cell growth at 0.1 uM incubated for 48 hrs by sulforhodamine B assay relative to control. The note with it: NCI-H23, 48 h, read-out: Activity.
The next assay has as its system OVCAR-3. Kind of assay: Growth inhibition of human OVCAR3 cells assessed as cell growth at 100 uM incubated for 48 hrs by sulforhodamine B assay relative to control. Conditions: OVCAR-3, 48 h, read-out: Activity.
Another assay deals with NCI/ADR-RES. Kind of assay: Growth inhibition of human NCI/ADR-RES cells assessed as cell growth at 0.1 uM incubated for 48 hrs by sulforhodamine B assay relative to control. The note with it: read-out: Activity.
In the next assay the test system is Malme-3M. Kind of assay: Growth inhibition of human MALME-3M cells assessed as cell growth at 0.1 uM incubated for 48 hrs by sulforhodamine B assay relative to control. Conditions: read-out: Activity.
Assay [3] has as its system SK-MEL-28. As to the kind of experiment: Growth inhibition of human SK-MEL-28 cells assessed as cell growth at 100 uM incubated for 48 hrs by sulforhodamine B assay relative to control. The note with it: SK-MEL-28, 48 h, read-out: Activity.
The next assay relates to HCC 2998. As to the kind of experiment: Growth inhibition of human HCC2998 cells assessed as cell growth at 0.1 uM incubated for 48 hrs by sulforhodamine B assay relative to control. Conditions: HCC 2998, 48 h, read-out: Activity.
In another assay the test system is SK-OV-3. As to the kind of experiment: Growth inhibition of human SKOV3 cells assessed as cell growth at 0.1 uM incubated for 48 hrs by sulforhodamine B assay relative to control. The note with it: SK-OV-3, 48 h, read-out: Activity.
The test system of the next assay is A549. Kind of assay: Growth inhibition of human A549/ATCC cells assessed as cell growth at 1 uM incubated for 48 hrs by sulforhodamine B assay relative to control. The note with it: A549, 48 h, read-out: Activity.
In assay [4] the test system is SF-268. As to the kind of experiment: Growth inhibition of human SF268 cells assessed as cell growth at 0.01 uM incubated for 48 hrs by sulforhodamine B assay relative to control. Conditions: SF-268, 48 h, read-out: Activity.
For assay [5], the system named is U-251. As to the kind of experiment: Growth inhibition of human U251 cells assessed as cell growth at 1 uM incubated for 48 hrs by sulforhodamine B assay relative to control. The note with it: U-251, 48 h, read-out: Activity.
For the next assay, the system named is OVCAR-8. As to the kind of experiment: Growth inhibition of human OVCAR8 cells assessed as cell growth at 0.01 uM incubated for 48 hrs by sulforhodamine B assay relative to control. Conditions: OVCAR-8, 48 h, read-out: Activity.
The subject of a further assay is SK-MEL-5. As to the kind of experiment: Growth inhibition of human SK-MEL-5 cells assessed as cell growth at 1 uM incubated for 48 hrs by sulforhodamine B assay relative to control. The note with it: SK-MEL-5, 48 h, read-out: Activity.
Assay [6] relates to M14. Kind of assay: Growth inhibition of human M14 cells assessed as cell growth at 0.1 uM incubated for 48 hrs by sulforhodamine B assay relative to control. The note with it: M14, 48 h, read-out: Activity.
For assay [7], the system named is T47D. Kind of assay: Growth inhibition of human T47D cells assessed as cell growth at 100 uM incubated for 48 hrs by sulforhodamine B assay relative to control. Conditions: read-out: Activity.
The subject of assay [8] is U-251. As to the kind of experiment: Growth inhibition of human U251 cells assessed as cell growth at 0.1 uM incubated for 48 hrs by sulforhodamine B assay relative to control. Conditions: U-251, 48 h, read-out: Activity.
The test system of assay [9] is RXF 393. As to the kind of experiment: Growth inhibition of human RXF393 cells assessed as cell growth at 0.1 uM incubated for 48 hrs by sulforhodamine B assay relative to control. Conditions: RXF 393, 48 h, read-out: Activity.
The test system of assay [10] is TK-10. Kind of assay: Growth inhibition of human TK10 cells assessed as cell growth at 1 uM incubated for 48 hrs by sulforhodamine B assay relative to control. Conditions: TK-10, 48 h, read-out: Activity.
The next assay deals with HOP-62. As to the kind of experiment: Growth inhibition of human HOP62 cells assessed as cell growth at 1 uM incubated for 48 hrs by sulforhodamine B assay relative to control. The note with it: HOP-62, 48 h, read-out: Activity.
For a further assay, the system named is SR. As to the kind of experiment: Growth inhibition of human SR cells assessed as cell growth at 0.01 uM incubated for 48 hrs by sulforhodamine B assay relative to control. The note with it: read-out: Activity.
Assay [11] relates to U-251. As to the kind of experiment: Growth inhibition of human U251 cells assessed as cell growth at 0.03 uM incubated for 48 hrs by sulforhodamine B assay relative to control. Conditions: U-251, 48 h, read-out: Activity.
Assay [12] has as its system T47D. As to the kind of experiment: Growth inhibition of human T47D cells assessed as cell growth at 0.3 uM incubated for 48 hrs by sulforhodamine B assay relative to control. The note with it: read-out: Activity.
Another assay relates to HCT-116. As to the kind of experiment: Growth inhibition of human HCT116 cells assessed as cell growth at 0.003 uM incubated for 48 hrs by sulforhodamine B assay relative to control. Conditions: HCT-116, 48 h, read-out: Activity.
Assay [13] deals with SN12C. Kind of assay: Growth inhibition of human SN12C cells assessed as cell growth at 0.03 uM incubated for 48 hrs by sulforhodamine B assay relative to control. The note with it: read-out: Activity.
For assay [14], the system named is SK-MEL-2. Kind of assay: Growth inhibition of human SK-MEL-2 cells assessed as cell growth at 0.003 uM incubated for 48 hrs by sulforhodamine B assay relative to control. The note with it: SK-MEL-2, 48 h, read-out: Activity.
For a further assay, the system named is MCF7. Kind of assay: Growth inhibition of human MCF7 cells assessed as cell growth at 0.3 uM incubated for 48 hrs by sulforhodamine B assay relative to control. Conditions: MCF7, 48 h, read-out: Activity.
The subject of assay [15] is SF-268. Kind of assay: Growth inhibition of human SF268 cells assessed as cell growth at 3 uM incubated for 48 hrs by sulforhodamine B assay relative to control. The note with it: SF-268, 48 h, read-out: Activity.
Assay [16] has as its system TK-10. As to the kind of experiment: Growth inhibition of human TK10 cells assessed as cell growth at 30 uM incubated for 48 hrs by sulforhodamine B assay relative to control. Conditions: TK-10, 48 h, read-out: Activity.
Assay [17] concerns SK-MEL-2. Kind of assay: Growth inhibition of human SK-MEL-2 cells assessed as cell growth at 0.3 uM incubated for 48 hrs by sulforhodamine B assay relative to control. The note with it: SK-MEL-2, 48 h, read-out: Activity.
In assay [18] the test system is T47D. Kind of assay: Growth inhibition of human T47D cells assessed as cell growth at 30 uM incubated for 48 hrs by sulforhodamine B assay relative to control. Conditions: read-out: Activity.
The subject of assay [19] is RXF 393. Kind of assay: Growth inhibition of human RXF393 cells assessed as cell growth at 3 uM incubated for 48 hrs by sulforhodamine B assay relative to control. The note with it: RXF 393, 48 h, read-out: Activity.
A further assay deals with COLO 205. Kind of assay: Growth inhibition of human COLO205 cells assessed as cell growth at 3 uM incubated for 48 hrs by sulforhodamine B assay relative to control. The note with it: COLO 205, 48 h, read-out: Activity.
In another assay the test system is CCRF-CEM. As to the kind of experiment: Growth inhibition of human CCRF-CEM cells assessed as cell growth at 0.3 uM incubated for 48 hrs by sulforhodamine B assay relative to control. The note with it: read-out: Activity.
Assay [20] relates to SN12C. Kind of assay: Growth inhibition of human SN12C cells assessed as cell growth at 30 uM incubated for 48 hrs by sulforhodamine B assay relative to control. Conditions: read-out: Activity.
Assay [21] concerns RXF 393. Kind of assay: Growth inhibition of human RXF393 cells assessed as cell growth at 0.03 uM incubated for 48 hrs by sulforhodamine B assay relative to control. The note with it: RXF 393, 48 h, read-out: Activity.

`COc1cc2cc(Oc3ccc(NC(=O)Nc4cc(C(F)(F)F)cc(C(F)(F)F)c4)cc3)c(C)nc2cc1OC`: in the assay on SK-MEL-28 [1], the growth at 10 µM was -61%. In addition, the growth at 100 µM in the assay with M14 [2] was -66%; in the assay with OVCAR-3 it was -89%; with SK-MEL-28 [3] it was -73%; with T47D [7] it was -82%. Besides, the growth at 0.1 µM in the assay on NCI-H23 amounted to 96%; with NCI/ADR-RES, 96%; in the assay with Malme-3M, 87%; in the assay with HCC 2998, 107%; in the assay with SK-OV-3, 104%; in the assay with M14 [6], 97%. Besides, the growth at 0.1 µM with U-251 [8] was 100%; in the assay on RXF 393 [9] it was 99%. In addition, the growth at 1 µM with A549 was 65%; with U-251 [5] it was 55%; in the assay with SK-MEL-5, 84%; in the assay with TK-10 [10], 81%; with HOP-62, 70%. Besides, the growth at 0.01 µM in the assay with SF-268 [4] worked out at 97%; with OVCAR-8, 111%; in the assay with SR, 92%.
Regarding `Cc1nc2cc(O)c(O)cc2cc1Oc1ccc(NC(=O)Nc2ccc(Cl)c(Cl)c2)cc1`, the growth at 0.03 µM worked out at 94% in the assay on U-251 [11], 102% in the assay on SN12C [13] and 96% in the assay on RXF 393 [21]. The growth at 0.3 µM with T47D [12] is 101%; with MCF7, 86%; in the assay with SK-MEL-2 [17] it was 118%; in the assay with CCRF-CEM, 98%. Also, the figures for the growth at 0.003 µM with HCT-116 and with SK-MEL-2 [14] were 93% and 107%, respectively. For the same compound, the growth at 3 µM in the assay with SF-268 [15] was 85%; in the assay with RXF 393 [19] it was 86%; in the assay on COLO 205, 85%. Further, the growth at 30 µM with TK-10 [16] was 23%; in the assay with T47D [18], 10%; with SN12C [20], -3%.
Regarding `COc1cc2cc(Oc3ccc(NC(=O)Nc4ccc(Cl)c(Cl)c4)cc3)c(C)nc2cc1OC`, the growth at 10 µM with SK-MEL-28 [1] is 16%. For the same compound, the growth at 100 µM in the assay with M14 [2] was -94%; in the assay on OVCAR-3, -98%; in the assay on SK-MEL-28 [3] it was -77%; with T47D [7], -54%. Also, the growth at 0.1 µM in the assay on NCI-H23 worked out at 93%; in the assay with NCI/ADR-RES, 100%; with Malme-3M, 105%; with HCC 2998 it was 101%; with SK-OV-3 it was 107%; in the assay on M14 [6], 97%. For the same compound, the growth at 0.1 µM in the assay on U-251 [8] worked out at 93%; in the assay on RXF 393 [9], 111%. Further, the growth at 1 µM with A549 was 66%; in the assay on U-251 [5], 83%; in the assay with SK-MEL-5, 91%; in the assay on TK-10 [10], 114%; in the assay on HOP-62 it was 101%. Besides, the growth at 0.01 µM with SF-268 [4] turned out to be 103%; in the assay on OVCAR-8, 101%; in the assay with SR, 107%.
Take `COc1cc2cc(Oc3ccc(NC(=O)Nc4ccc(Cl)c(C(F)(F)F)c4)cc3)c(C)nc2cc1OC`: the values for the growth at 0.03 µM in the assay with U-251 [11], with SN12C [13] and in the assay on RXF 393 [21] were 97%, 95% and 104%, respectively. Besides, the growth at 0.3 µM in the assay with T47D [12] is 92%; in the assay with MCF7, 97%; in the assay on SK-MEL-2 [17] it was 101%; in the assay with CCRF-CEM, 101%. The growth at 0.003 µM was 100% with HCT-116 and 96% with SK-MEL-2 [14]. For the same compound, the growth at 3 µM in the assay on SF-268 [15] is 26%; in the assay with RXF 393 [19], 10%; with COLO 205 it was -67%. Also, the growth at 30 µM in the assay with TK-10 [16] was -46%; in the assay on T47D [18], -30%; in the assay on SN12C [20], -56%.
